Source: patent publication US10208078B1 (SHAANXI UNIVERSITY OF SCIENCE AND TECHNOLOGY, priority 2018, dated 2019)

Experiment: DPPH radical scavenging activity assay
Type: biochemical
Set-up: Scavenging activity (%): unit of the concentration uncertain
Settings: for Scavenging activity (%): 0.2 mmol/L DPPH, 30 minutes room temperature in dark, absorbance at 517 nm
Excerpt: 2,2-Diphenyl-1-picryl hydrazyl (DPPH) is an organic compound composed of a stable organic radical. In the DPPH molecule, due to the presence of multiple electron-withdrawing —NO2 and large π bonds of the benzene ring, nitrogen free radical is stabilized. Its methanol solution is purple and has a maximum absorption peak at 517 nm. After the addition of an antioxidant, DPPH captures an electron to be paired with the free electron, and the purple fades and turns into a yellow substance. The absorption at 517 nm disappears, and the degree of fading is quantitatively related to the number of electrons it captures. Based on this principle, a spectrophotometer is used to detect the change of the absorbance of the DPPH radical and the sample solution, and the ability of the sample to provide hydrogen atoms and scavenge free radicals can be measured.
Preparation of DPPH solution: measuring exact amount of 2,2-diphenyl-1-picryl hydrazyl (DPPH) and dissolving in methanol to prepare a 0.2 mmol/L DPPH solution, stored at 0° C. in dark.
Measuring the scavenging activity of the sample solutions:
2 mL of the sample solutions at each concentration gradient was taken, 2 mL 0.2 mmol/L DPPH solution was added, the mixture was mixed and reacted at room temperature in dark for 30 minutes, and methanol was then added to adjust final volume. The absorbance Ai was measured at 517 nm. 2 mL control solution and 2 mL methanol were mixed, and the absorbance Aj was measured. 2 mL DPPH solution and 2 mL methanol were mixed, and the absorbance A0 was measured. The scavenging activity of the sample solution and control solutions is calculated according to the following calculation formula. Scavenging activity (%)=100×[1−(Ai−Aj)/A0]
In FIG. 1, the X axis represents the concentrations (PPM) of the sample and control solutions, and the Y axis represents the scavenging activity.

[1] = concentration 6.89 (unit uncertain)
[2] = concentration 68.9 (unit uncertain)
[3] = concentration 172 (unit uncertain)
[4] = concentration 689 (unit uncertain)
[5] = concentration 1724 (unit uncertain)
[6] = concentration 6890 (unit uncertain)
[7] = concentration 8620 (unit uncertain)

Compound | free radical clearance rate (achieved at a lower concentration than aesculin, thiodipropionic acid and their mixture) | Scavenging activity (%) [1] [%] | Scavenging activity (%) [2] [%] | Scavenging activity (%) [3] [%] | Scavenging activity (%) [4] [%] | Scavenging activity (%) [5] [%] | Scavenging activity (%) [6] [%] | Scavenging activity (%) [7] [%]
O=C(CCSCCC(=O)OCC1OC(Oc2cc3ccc(=O)oc3cc2O)C(O)C(O)C1O)OCC1OC(Oc2cc3ccc(=O)oc3cc2O)C(O)C(O)C1O (stereo not shown) [Aesculin thiodipropionic acid ester, aesculin thiodipropionic acid ester] | more than 90% | 7.60 | 37.08 | 58.91 | 77.78 | 90.95 | 94.83 | 96.12
O=C1O[C@H]([C@@H](O)CO)C(O)=C1O [Vitamin C, vitamin C] |  | 53.40 | 96.15 | 96.28 | 96.79 | 96.79 | 97.18 | 97.43
O=C(O)CCSCCC(=O)O [Thiodipropionic acid, 3,3′-thiodipropionic acid] |  | 1.13 | 3.84 | 4.64 | 5.20 | 5.43 | 6.33 | 6.57
